Assay results as given in patent publication US20250041284A1, “TREATMENT OF NEUROLOGICAL DISORDERS” (Praxis Precision Medicines, Inc., priority 2022, published 2025).

Legend:
[1] = test system: scPTZ-induced seizures in wildtype CD-1 mice; assay: Subcutaneous pentylenetetrazole (scPTZ) induced seizure; assay type: in vivo, mouse; details: 1-10 mg/kg orally
Procedure: Male CD-1 mice (Charles River Laboratories, St. Constant, Quebec, Canada) were used for the study. Body weights at the time the experiment was carried out were between 27 and 39 grams. The mice were group-housed in polycarbonate cages according to standard operating procedures. Animals were maintained on a 12 hour light/12 hour dark cycle, with all experimental activities occurring during the light phase. Food and water were available ad libitum. Mice acclimated to the test facility for at least 72 hours prior to testing.
Treatment was conducted using Compound 1 and 35% 2-hydroxypropyl-β-cyclodextrin (35% HPBCD, used as a negative control). Compound 1 stock solution was prepared fresh each experiment day in 35% HPBCD. […]
Immediately prior to the administration of PTZ, a brief neurological assessment was performed. Each animal was visually assessed and received a score from 0 to 3 according to the following scoring system: neurological score of 0 corresponds to a normal status; neurological score of 1 corresponds to a modest decrease in spontaneous activity; neurological score of 2 corresponds to a marked decrease in spontaneous activity; and neurological score of 3 corresponds to loss of righting reflex.
PTZ (85 mg/kg, 10 ml/kg) was administered as a subcutaneous (s.c.) injection. […] The latency to generalized clonic seizure was recorded. Seizures were also scored using a seizure scale. […]

[2] = test system: MES-induced seizures in male CD-1 mice; assay: Maximal electroshock (MES) induced seizure, latency (Example 3); assay type: in vivo, mouse
Procedure: Food and water were available ad libitum.
Dosing solutions were prepared on each experiment day. […] VPA was prepared in saline (Vehicle 1). All solutions were protected from light. All compounds and vehicles were dosed at 10 ml/kg.
The MES test was carried out over two days with half of the mice from each treatment group being tested on each day. Mice were brought to the test room at least one hour before the start of the experiment. […] Mice were randomly assigned into one of the six treatment groups.
Animals were p.o. (oral) administered Compound 1 or 35% HPBCD (Vehicle 2) 30 minutes prior to the MES test or i.p. administered VPA or saline (Vehicle 1) 30 minutes prior to the MES test.
A Grass S88x (Grass Technologies of Astro-Med, Inc., West Warwick, RI) Stimulus Isolation Unit (A385, WPI Inc., USA) was set to deliver a 50 mA square-wave stimulus, with a 0.8 second duration, a pulse width of 10 msec, and a frequency of 50 Hz. A pair of custom stainless steel electrodes were soaked in 0.2% Agar, and then the subject received bilateral transauricular stimulation through ear-clip electrodes. During the stimulation, mice were manually restrained. They were then released into the observation cage for convulsion observation for 60 seconds immediately after stimulation. Each mouse was observed continuously by individuals blinded to treatment conditions and results were recorded.
Anti-seizure assessment endpoints were: (1) latency of hindlimb tonic flexion; (2) latency of hindlimb tonic extension; (3) total #hindlimb tonic flexions; (4) total #hindlimb tonic extensions; (5) latency to death; and (6) mortality rate.
Following the experiment, mice were anesthetized with CO2 and terminal plasma and brain tissue samples were collected. […] The supernatant plasma was pipetted into Eppendorf tubes.
An aliquot of 20 μL unknown sample, calibration standard, quality control, dilute quality control, single blank and double blank sample was added to a 1.5 mL tube. […]
From these fitted curves, ED50 and EC50 values were calculated.

Structure (SMILES): CCOC(F)(F)c1nnc2ccc(-c3cnc(OCC(F)(F)F)c(F)c3)cn12 [Compound 1]
- neurological scores before PTZ [1]: Neurological scores for all but one mouse treated with Compound 1 were normal
- protection from PTZ-induced generalized clonus ([1]; PTZ 85 mg/kg s.c.): mice were protected from generalized clonus
- latency to seizures following bilateral transauricular stimulation ([2]; 1 mg/kg p.o.): significantly increased latency to seizures
- block of evoked seizures (MES) ([2]; 10 mg/kg): completely blocked evoked seizures
- ED50 ([2]; Mus musculus, po, 30 min before MES, latency to seizures): 0.67 mg/kg
